Tests used:
[1] = system: HCV sub-genomic replicon (I377/NS3-3′) in HuH-7 hepatoma cells (GS4.3); assay: Quantitation by ELISA of NPTII in the HCV sub-genomic replicon, GS4.3; assay type: cell-based; conditions: Hepatitis C virus, GS4.3 replicon cells, 72 h incubation
Protocol: The HCV sub-genomic replicon (I377/NS3-3′, accession No. AJ242652), stably maintained in HuH-7 hepatoma cells, was created by Lohmann et al. Science 285: 110-113 (1999). The replicon-containing cell culture, designated GS4.3, was obtained from Dr. Christoph Seeger of the Institute for Cancer Research, Fox Chase Cancer Center, Philadelphia, Pa.
GS4.3 cells were maintained at 37° C., 5% CO2, in DMEM (Gibco 11965-092) supplemented with L-glutamine 200 mM (100×) (Gibco25030-081), non-essential amino acids (NEAA)(Biowhittaker 13-114E), heat-inactivated (HI) Fetal Bovine Serum(FBS)(Hyclone SH3007.03) and […] geneticin (G418)(Gibco 10131-035). Cells were sub-divided 1:3 or 4 every 2-3 days.
24 h prior to the assay, GS4.3 cells were collected, counted, and plated in 96-well plates (Costar 3585) at 7500 cells/well in 100 μL standard maintenance medium (above) and incubated in the conditions above. To initiate the assay, culture medium was removed, cells were washed once with PBS (Gibco 10010-023) and 90 μl Assay Medium (DMEM, L-glutamine, NEAA, 10% HI FBS, no G418) was added. Inhibitors were made as a 10× stock in Assay Medium, (3-fold dilutions from 10 μM to […] final concentration, final DMSO concentration 1%), 10 μL were added to duplicate wells, plates were rocked to mix, and incubated as above for 72 h.
An NPTII Elisa kit was obtained from AGDIA, Inc. (Compound direct ELISA test system for Neomycin Phosphotransferase II, PSP 73000/4800). Manufacturer's instructions were followed, with some modifications. 10×PEB-1 lysis buffer was made up to include 500 μM PMSF (Sigma P7626, 50 mM stock in isopropanol). After 72 h incubation, cells were washed once with PBS and 150 μL PEB-1 with PMSF was added per well. Plates were agitated vigorously for 15 minutes, room temperature, and then frozen at −70° C. Plates were thawed, lysates were mixed thoroughly, and 100 μL were applied to an NPTII Elisa plate. A standard curve was made. Lysate from DMSO-treated control cells was pooled, serially diluted with PEB-1 with PMSF, and applied to duplicate wells of the ELISA plate, in a range of initial lysate amount of 150 μL. In addition, 100 μL buffer alone was applied in duplicate as a blank. Plates were sealed and gently agitated at room temperature for 2 h. Following capture incubation, the plates were washed 5×300 μL with PBS-T (0.5% Tween-20, PBS-T was supplied in the ELISA kit). For detection, a 1× dilution of enzyme conjugate diluent MRS-2 (5×) was made in PBS-T, into which 1:100 dilutions of enzyme conjugates A and B were added, as per instructions. Plates were resealed, and incubated with agitation, covered, room temperature, for 2 h. The washing was then repeated and 100 μL of room temperature TMB substrate was added. After approximately 30 minutes incubation (room temperature, agitation, covered), the reaction was stopped with 50 μL 3M sulfuric acid. Plates were read at 450 nm on a Molecular Devices Versamax plate reader.
Inhibitor effect was expressed as a percentage of DMSO-treated control signal, and inhibition curves were calculated using a 4-parameter equation: y=A+4B−A)/(1+((C/x)̂D))), where C is half-maximal activity or EC50.

[2] = molecular target: T1, HCV NS3 protease (full-length NS3/NS4A-2 complex) (Hepatitis C virus genotype 1a, UniProt P27958); assay: NS3 Inhibition Assay (NS3-NS4 protease assay, RETS1 substrate); assay type: biochemical; conditions: NS3/NS4A-2, RETS1 substrate, 10 minutes pre-incubation
T1 construct: Recombinant E. coli or Baculovirus full-length NS3 was diluted to 3.33 μM with assay buffer; host or cells: E. coli or baculovirus (insect cells)
T1 sequence (P27958 1027-1657, one chain of several): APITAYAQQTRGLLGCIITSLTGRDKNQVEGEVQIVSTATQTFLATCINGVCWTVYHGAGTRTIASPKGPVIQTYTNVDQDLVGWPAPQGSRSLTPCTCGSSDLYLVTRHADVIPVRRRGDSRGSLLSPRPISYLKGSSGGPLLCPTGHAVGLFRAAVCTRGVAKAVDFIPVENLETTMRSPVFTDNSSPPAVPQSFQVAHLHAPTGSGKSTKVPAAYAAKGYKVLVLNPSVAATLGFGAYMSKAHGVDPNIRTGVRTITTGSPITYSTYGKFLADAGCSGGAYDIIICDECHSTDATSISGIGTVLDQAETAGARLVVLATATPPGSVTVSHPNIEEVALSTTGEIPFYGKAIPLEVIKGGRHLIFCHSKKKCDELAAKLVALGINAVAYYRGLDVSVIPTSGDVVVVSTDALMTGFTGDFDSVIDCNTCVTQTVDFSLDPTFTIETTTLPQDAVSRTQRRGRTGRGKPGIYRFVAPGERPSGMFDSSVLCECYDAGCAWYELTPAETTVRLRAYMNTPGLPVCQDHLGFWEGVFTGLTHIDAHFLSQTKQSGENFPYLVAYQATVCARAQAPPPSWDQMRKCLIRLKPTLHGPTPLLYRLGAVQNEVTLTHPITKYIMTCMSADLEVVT
Protocol: NS3 Complex Formation with NS4A-2.
Recombinant E. coli or Baculovirus full-length NS3 was diluted to 3.33 μM with assay buffer and the material was transferred to an eppendorf tube and placed in a water bath in a 4° C. refrigerator. The appropriate amount of NS4A-2 diluted to 8.3 mM in assay buffer was added to an equal the volume of NS3 above (conversion factor—3.8 mg/272 μL assay buffer). The material was transferred to an eppendorf tube and placed in water bath in a 4° C. refrigerator.
After equilibration to 4° C., equal volumes of NS3 and NS4A-2 solutions were combined in an eppendorf tube, mixed gently with a manual pipettor, and incubated for 15 minutes in the 4° C. water bath. Final concentrations in the mixture are 1.67 μM NS3, 4.15 mM NS4A-2 (2485-fold molar excess NS4A-2).
After 15 minutes at 4° C., the NS3/NS4A-2 eppendorf tube was removed and placed in a room temperature water bath for 10 minutes. NS3/NS4A-2 was aliquoted at appropriate volumes and stored at −80° C. (E. coli NS3 run at 2 nM in assay, aliquot at 25 μL. BV NS3 run at 3 nM in assay, aliquot at 30 μL).
Step a. Sample compounds were dissolved to 10 mM in DMSO then diluted to 2.5 mM (1:4) in DMSO. Typically, compounds were added to an assay plate at 2.5 mM concentration, yielding upon dilution a starting concentration of 50 μM in the assay inhibition curve. Compounds were serial diluted in assay buffer to provide test solutions at lower concentrations.
Step 1. The E. coli. NS3/NS4A-2 was diluted to 4 nM NS3 (1:417.5 of 1.67 μM stock−18 μL 1.67 μM stock+7497 μL assay buffer). The BV NS3/NS4A-2 was diluted to 6 nM NS3 (1:278.3 of 1.67 μM stock−24 μL 1.67 μM stock+6655 μL assay buffer).
Step. 2. Using the manual multichannel pipettor, and being careful not to introduce bubbles into the plate, 50 μL assay buffer was added to wells A01-H01 of a black Costar 96-well polypropylene storage plate.
Step 3. Using the manual multichannel pipettor, and being careful not to introduce bubbles into the plate, 50 μL of diluted NS3/NS4A-2 from step 1 was added to wells A02-H12 of the plate in step 2.
Step 4. Using the manual multichannel pipettor, and being careful not to introduce bubbles into the plate, 25 μL of the wells in drug dilution plate in step a was transferred to corresponding wells in assay plate in step 3. The tips on the multichannel pipettor were changed for each row of compounds transferred.
Step 5. Using the manual multichannel pipettor, and being careful not to introduce bubbles into the plate, the contents of the wells from the assay plate in step 4 were mixed by aspirating and dispensing 35 μL of the 75 μL in each well five times. The tips on multichannel pipettor were changed for each row of wells mixed.
Step 6. The plate was covered with a polystyrene plate lid, and the plate from step 5 containing NS3 protease and sample compounds was pre-incubated 10 minutes at room temperature.
While the plate from step 6 is pre-incubating, the RETS1 substrate was diluted in a 15 mL polypropylene centrifuge tube. The RETS1 substrate was diluted to 8 μM (1:80.75 of 646 μM stock−65 μL 646 μM stock+5184 μL assay buffer).
After the plate in step 6 finished pre-incubating, and using the manual multichannel, 25 μL of substrate was added to all wells on the plate. The contents of the wells of the plate were quickly mixed, as in step 5, mixing 65 μL of the 100 μL in the wells.
The plate was read in kinetic mode on the Molecular Devices SpectraMax Gemini XS plate reader. Reader settings: Read time: 30 minutes, Interval: 36 seconds, Reads: 51, Excitation λ: 335 nm, Emission λ: 495 nm, cutoff: 475 nm, Automix: off, Calibrate: once, PMT: high, Reads/well: 6, Vmax pts: 21 or 28/51 depending on length of linearity of reaction
IC50s are determined using a four parameter curve fit equation, and converted to Ki's using the following Km's: • Full-length E. coli NS3-2.03 μM • Full-length BV NS3-1.74 μM • where Ki=IC50/(1+[S]/Km))

| SMILES | EC50 [1] [nM] | IC50 [2] [nM] |
| --- | --- | --- |
| CC[C@@H]1C[C@@]12NC(=O)[C@@H]1C[C@H](CN1C(=O)[C@@H](NC(=O)OC(C)(C)C)C(C)(C)C)Oc1nc3c(cccc3n1C(C)C)CCCC/C=C/CCCC1(CC1)S(=O)(=O)NC2=O [Compound 111] | ≥ 100 | 10 to 100 |
| CC[C@@H]1C[C@@]12NC(=O)[C@@H]1C[C@H](CN1C(=O)[C@@H](NC(=O)OC(C)(C)C)C(C)(C)C)Oc1nc3c(cccc3n1C(C)C)CCCCCCCCCC1(CC1)S(=O)(=O)NC2=O [Compound 112] | ≥ 100 | ≤ 10 |
| CC[C@@H]1C[C@@]12NC(=O)[C@@H]1C[C@H](CN1C(=O)[C@@H](N)C(C)(C)C)Oc1nc3c(cccc3n1C(C)C)CCCCCCCCCC1(CC1)S(=O)(=O)NC2=O [Compound 113] | ≥ 100 | 10 to 100 |

Source: patent publication US20120094897A1, “NOVEL INHIBITORS OF HEPATITIS C VIRUS REPLICATION” (InterMune, Inc., priority 2010, published 2012)
